Data reported in patent US20230373972A1, “PIPERAZINE DERIVATIVE, PREPARATION METHOD THEREFOR AND USE THEREOF” (Zhejiang Hisun Pharmaceutical Co., Ltd., priority 2020, published 2023).

Legend:
[1] = biological target: T1, Native human Factor XIa protease (Homo sapiens, UniProt P03951); experiment: Inhibition of activity of Factor XIa protease (chromogenic substrate S-2366); format: biochemical; conditions: S-2366 1 mM, 37° C. 10 minutes, absorption at 405 nm
T1 construct: The Native human Factor XIa protease was purchased from Abcam; purchased Abcam ab62411
Method in brief: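 Native human Factor XIa (final […]) in 100 mM Tris-HCl, 200 mM NaCl, 0.02% Tween 20, pH 7.4, preincubated with compound 5 min on ice; 1 mM S-2366 added, 10 min at 37° C. Absorbance at 405 nm versus 0.1% DMSO control; IC50 by nonlinear regression, compound 10,000 nM to […] final.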

[2] = test system: human plasma; experiment: In-vitro anticoagulation on human plasma (APTT kit, coagulation time); conditions: concentration of the compound when the coagulation time (APTT) was prolonged twice
[3] = Metabolic stability in mouse liver microsomes; format: in vitro ADME
Experimental: The experiment was intended to study the metabolic stability of the compounds of the present invention in dog and mouse liver microsomes.
A test compound and the compound of Comparative Example 1 were incubated with dog and mouse liver microsomes (the Corning Company. USA) respectively, and a coenzyme NADPH was added to start the reaction. 135 μL of acetonitrile containing an internal standard (IS) was added to wells of a corresponding plate after 0, 5, 15, 30 and 45 minutes respectively to terminate the reaction. After protein precipitation, the solution was centrifuged at 5.594 rpm for 15 minutes, and a supernatant was taken. The supernatant was diluted with water by 1:1 (volume ratio) and then analyzed by a LC-MS/MS method. Ketanserin was used as an internal reference compound, and two copies of Ketanserin were incubated in parallel.
A peak area ratio of analyte/internal standard (Aanalyte/A1s) was obtained by an instrument, and a remaining percentage (% Control) was calculated by ratios of Aanalyte/A1s in a sample at a non-zero time point and a sample at a zero time point. Ln (% Control) was plotted and fitted linearly with the incubation time. A scavenging constant (k, min^−1) and a scavenging half-life (T1/2, min) of the tested compound were calculated by the following equation.

[4] = Pharmacokinetics in cynomolgus macaque; format: in vivo; conditions: male, cynomolgus monkey, plasma, po, intragastric administration 15 mg/kg
Experimental: Taking a cynomolgus macaque as a tested animal, the cynomolgus macaque was administrated with the compound in Example 96 of the present invention by intragastric administration, and drug concentrations in plasma at different times were determined by a LC/MS/MS method to study pharmacokinetic characteristics of the compound of the present invention in the cynomolgus macaque.
Cynomolgus macaque, male, 4.6 kg to 5.7 kg, adult, purchased from Guangxi Fangcheng Gang Spring Biological Technology Development Corporation Ltd.
Preparation of drug administrated by intragastric administration: a proper amount of compound to be tested was added to a proper amount of DMAC: (30% Kolliphor HS 15): Saline=5%: 10%; 85% (v/v/v), and shaken in a vortex manner, so as to prepare a final solution with a concentration of 3 mg/mL.
Cynomolgus macaques were organized into one group, which was an intragastric administration group (3 cynomolgus macaques in single group).
Intragastric administration group: the drug was administrated by intragastric administration (according to a dosage of 15 mg/kg and a volume of 5 ml/kg) after fasting overnight, and food was taken 4 hours after administration.
Intragastric administration group: about 500 μL of blood was collected into an EDTA-K2 anticoagulant tube through a cephalic vein and a saphenous vein 0.25 hour, 0.5 hour, 1 hour, 2 hours, 4 hours, 8 hours and 24 hours after administration.
The blood sample was placed on wet ice first, and plasma was centrifugally separated within 15 minutes after sampling (centrifugation conditions: 2,000 g, 4° C., 5 minutes). The collected upper plasma was stored at −70° C. before analysis.
Contents of the compound to be tested in cynomolgus macaque plasma after intragastric administration were determined by LC-MS/MS.

T1 sequence (P03951 388-625 limits assumed): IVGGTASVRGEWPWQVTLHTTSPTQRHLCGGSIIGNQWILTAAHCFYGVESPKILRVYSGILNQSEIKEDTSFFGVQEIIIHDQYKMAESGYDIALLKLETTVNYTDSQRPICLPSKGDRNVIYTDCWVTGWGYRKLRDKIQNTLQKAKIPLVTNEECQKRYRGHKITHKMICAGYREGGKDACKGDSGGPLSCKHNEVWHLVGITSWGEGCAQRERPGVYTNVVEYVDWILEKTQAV
T1 sequence (P03951 19-387 partner limits assumed): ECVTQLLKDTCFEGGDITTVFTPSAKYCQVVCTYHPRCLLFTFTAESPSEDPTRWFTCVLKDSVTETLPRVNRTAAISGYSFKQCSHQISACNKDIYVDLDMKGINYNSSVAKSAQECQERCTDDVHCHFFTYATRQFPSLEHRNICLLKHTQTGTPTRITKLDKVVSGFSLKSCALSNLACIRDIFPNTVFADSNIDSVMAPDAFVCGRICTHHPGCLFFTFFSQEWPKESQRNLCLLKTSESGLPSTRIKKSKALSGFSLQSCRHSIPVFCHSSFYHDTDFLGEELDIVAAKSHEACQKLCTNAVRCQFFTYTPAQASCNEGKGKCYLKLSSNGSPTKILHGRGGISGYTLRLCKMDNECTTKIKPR

IC50 [1]: 42.8 nM
half-life at 1 μM ([3]; mouse liver microsomes 0.5 mg/mL, 1 μM compound, NADPH, read-out: Half-life period (T1/2 min) Mouse): 5.53 h
Cmax ([4]; read-out: Blood concentration Cmax): 834 ± 482 ng/mL
AUC(0-t) ([4]; read-out: Curve area AUC0-t): 4210 ± 1240 ng·h/mL
half-life ([4]; read-out: Half-life period T1/2(h) (converted)): 3.71 ± 0.42 h
Structure (SMILES): COCC[C@@H](C(=O)Nc1ccc2nn(C)cc2c1)N1CC(=O)N(c2cc(Cl)ccc2-n2cc(Cl)nn2)CC1=O [Example 96, (S)-2-(4-(5-chloro-2-(4-chloro-1H-1,2,3-triazol-1-yl)phenyl)-2,5-dioxopiperazin-1-yl)-4-methoxy-N-(2-methyl-2H-indazol-5-yl)butanamide]
CT2 [2]: 5.3 µM
Half-life period and stability compared with Comparative Example 1 ([3]; mouse liver microsomes, in words): longer half-life period and a higher stability
